Tested on: SARS2
Format: cell-based, SARS-CoV-2

Row | Compound | SARS2 antiviral activity
1 | CC1=C(C(=O)OC2CCCCCCC2)C(c2ccc3c(c2)OCO3)NC(=O)N1 (centres unmarked) [UMB22_5] | improved activity than ring open analogs
2 | O=C(NC1CCCCCC1)c1cn[nH]c1-c1ccc2c(c1)OCCO2 [UMB22_16] | improved activity than ring open analogs

Source: US20240132484A1, “BROAD SPECTRUM ANTIVIRAL COMPOUNDS TARGETING THE SKI COMPLEX” (priority 2020, published 2024)
